Patent publication US20020055099A1, “SEQUENTIAL CDNA LIBRARY AND USES THEREOF” (priority 1999, published 2002)

Columns and labels:
[1] = system: HO-1 human melanoma cells; test: SCLA reverse Northern hybridization of arrayed subtracted cDNA library with mRNAs from treated HO-1 cells; format: cell-based; settings: IFN-β 2000 units/ml, MEZ 10 ng/ml, staurosporine 500 ng/ml, temporally pooled mRNAs
Protocol: Staurosporine-treated HO-1 cells were harvested at 4, 8 and 24 hrs after treatment.
For reverse Northern analysis, RNA samples from each time point were pooled and 20 μg of pooled total RNA was reverse transcribed in two reactions into a ^32P-labeled first strand cDNA probe. After heating at 70° C. for 10 min and quenching on ice for two min, a mixture consisting of 10 pmole of T13V and 10 μg of the total RNA mixture in 50 mM Tris-HCl (pH 8.3), 75 mM KCl, 3 mM MgCl2, 10 mM DTT, 0.5 mM DATP, 0.5 mM dGTP, 0.5 mM dTTP, 0.02 mM dCTP, 5 U RNase inhibitor (Gibco BRL), 100 μCi dCTP (3000 Ci/mmole from Amersham) and 200 U Superscript RT II (Gibco BRL) was added (final 25 μl). The reaction mixture was incubated at 42° C. for one hr and at 37° C. for 30 min after addition of 2 μl of RNase H (10U, Gibco BRL). The membrane was hybridized at 42° C. overnight in a 50% formamide hybridization solution. The hybridized membrane was washed 2× at room temperature for 15 min with 2× SSC containing 0.1% SDS and then washed for at least one hr at 55° C. with 0.1× SSC containing 0.1% SDS. The membranes were exposed for different times to autoradiography.
After subtraction hybridization, a temporally spaced amplified subtracted (TSS) cDNA library (consisting of 4,979 plaques) was picked and plated individually (arrayed) in thirteen 384-well microtiter plates. […] This approach permitted the identification of cDNAs displaying altered expression as a function of the specific treatment protocol.

[2] = system: HO-1 human melanoma cells; settings: HO-1 cells, cited from earlier work
[3] = IFN-β 2000 units/ml, MEZ 10 ng/ml where printed

| Structure (SMILES) | clones induced only by the agent (uniquely positive after a single treatment protocol) [1] | effect on HO-1 cell growth [2, 3] | melanin synthesis / differentiation marker [2, 3] | morphological differentiation ([2]; MEZ 10 ng/ml) | positive clones (DMAC) identified after treatment, of 427 positive clones [1] | apoptosis [2] |
| --- | --- | --- | --- | --- | --- | --- |
| C=C(C)[C@@]12O[C@@]3(c4ccccc4)O[C@@H]1[C@@H]1[C@@H]4O[C@]4(CO)[C@@H](O)[C@]4(O)C(=O)C(C)=C[C@H]4[C@@]1(O3)[C@H](C)[C@H]2OC(=O)/C=C/C=C/c1ccccc1 [MEZ, mezerein] | 12 clones | growth suppression | elevated melanin levels | exhibit morphological differentiation |  |  |
| CN[C@@H]1C[C@H]2O[C@@](C)([C@@H]1OC)n1c3ccccc3c3c4c(c5c6ccccc6n2c5c31)C(=O)NC4 [staurosporine] | 25 clones |  |  |  | 107 clones | induces apoptosis |
